The values that follow are results of earlier work, collected in article PMC12308805, “Ultrahigh-Throughput Virtual Screening Strategies against PPI Targets: A Case Study of STAT Inhibitors” (Journal of Chemical Information and Modeling, 2025).

SMILES strings stand for the structures. Square brackets hold non-standard residues; d marks the D form. Peptide text beside a SMILES is read from it. * marks the point of attachment. βNA = c1ccc2cc(N*)ccc2c1

The test system of one data set is STAT3. As to conditions: sheet 6QHD_actives_decoys; retrospective screening set for STAT3 SH2 domain (PDB 6QHD); […]; ref DUD-E; cited from earlier work.
`NCCCC[C@H](NC(=O)[C@@H](CC(=O)O)NC(=O)[C@@H](CC(=O)O)NC(=O)[C@@H](CC(=O)O)NC(=O)[C@@H](CC(=O)O)NC(=O)CN)C(=O)Nc1ccc2ccccc2c1` [Decoy438] (H-G[dD][dD][dD][dD]K-βNA): the Type entry is listed as “Inactive (Decoy)”.

For `Cc1ccc(NC(=O)CCC(=O)NNC(=O)CCCCC(=O)NNC(=O)CCC(=O)Nc2ccc(C)c(C)c2)cc1C` [Decoy444], the Type entry is on record as “Inactive (Decoy)”.

For the compound `O=C(NCCNc1ccc(C(F)(F)F)cc1[N+](=O)[O-])c1ccc(CSc2ncn[nH]2)cc1` [Decoy448], the Type entry was “Inactive (Decoy)”.

`O=[N+]([O-])c1ccc(S(=O)(=O)Nc2cccc(NS(=O)(=O)c3ccc([N+](=O)[O-])cc3)c2)cc1` [Decoy459]: the Type result is given as “Inactive (Decoy)”.

Staying with this data set, now noted: sheet 6QHD_actives_decoys; retrospective screening set for STAT3 SH2 domain (PDB 6QHD); decoys generated with DUD-E and presumed inactive, not tested; ref DUD-E; cited from earlier work.
As to `COc1cc(/C=N/NC(=O)CCCCC(=O)N/N=C/c2cc(Br)c(O)c(OC)c2)cc(Br)c1O` [Decoy433], the Type entry is recorded as “Inactive (Decoy)”.

As to `CCCCCOc1ccc([C@H]2C(C(=O)c3ccc4c(c3)OCCO4)=C(O)C(=O)N2CCCN2CCOCC2)cc1OCC` [Decoy434], the Type result is on record as “Inactive (Decoy)”.

Consider `COC(=O)c1ccc(NC(=O)CSc2nc3ccc(NC(=O)CSc4nnc(-c5ccc(N)cc5)n4C)cc3s2)cc1` [Decoy435], for which the Type result is given as “Inactive (Decoy)”.

On to `CCCC(=O)C1=C(N2CCN(C3=C(C(=O)CCC)C(O)=C(C(=O)OC)C(C)(C)C3)CC2)CC(C)(C)[C@H](C(=O)OC)C1=O` [Decoy436], for which the Type result is “Inactive (Decoy)”.

In the case of `CCOC(=O)c1c(NC(=O)CSc2n[nH]c(N/N=C/c3ccc(F)cc3)n2)sc2c1CCCC2` [Decoy437], the Type entry was “Inactive (Decoy)”.

Turning to `Nn1c(N/N=C/c2c(O)ccc3ccccc23)nnc1SCCC(=O)Nc1ccc2c(c1)C(=O)NC2=O` [Decoy439], the Type result is reported as “Inactive (Decoy)”.

Take `O=C(CCCCCNC(=O)CCCC[C@H]1SC[C@H]2NC(=O)N[C@@H]21)NC/C=C/c1cn([C@@H]2O[C@@H](CO[P@](=O)(O)O[P@](=O)(O)OP(=O)(O)O)[C@@H](O)[C@H]2O)c(=O)nc1O` [Decoy440]: the Type entry is listed as “Inactive (Decoy)”.

`Nn1c(N/N=C/c2ccc([N+](=O)[O-])cc2)nnc1SCC(=O)Nc1ccc(OC(F)(F)F)cc1` [Decoy441]: the Type entry was “Inactive (Decoy)”.

In the case of `CC(=O)O[C@H]1[C@@H](O)[C@H](CO)O[C@H](O[C@@H](C/N=C/c2c(O)ccc3ccccc23)[C@@H](CO)O[C@H](O)C/N=C/c2c(O)ccc3ccccc23)[C@@H]1O` [Decoy442], the Type result is given as “Inactive (Decoy)”.

As to `CCCCCO[C@@H]1[C@H]2OC(C)(C)O[C@H]2O[C@@H]1[C@@H](O)CO[C@@H]1O[C@H](COC(C)=O)[C@@H](OC(C)=O)[C@H](OC(C)=O)[C@H]1NC(C)=O` [Decoy443], the Type result is reported as “Inactive (Decoy)”.

On to `CSc1ccc(S(=O)(=O)NCC(=O)OCC(=O)Nc2cccc3nsnc23)cc1[N+](=O)[O-]` [Decoy445], for which the Type result was “Inactive (Decoy)”.

As for `CCSc1ccccc1NC(=O)CSc1n[nH]c(N/N=C/c2cc([N+](=O)[O-])ccc2O)n1` [Decoy446], the Type result is recorded as “Inactive (Decoy)”.

For the compound `COCCN1C(=O)c2cc(C(=O)Nc3ccc(OC)c(OC)c3)ccc2[C@H]1Nc1ccc(OC)c(OC)c1` [Decoy447], the Type result was “Inactive (Decoy)”.

On to `CCOC(=O)c1c(NC(=O)CCSc2nnc(N/N=C/c3ccc(C)cc3)n2N)sc2c1CCCC2` [Decoy449], for which the Type entry is given as “Inactive (Decoy)”.

Regarding `CCCNC(=O)CN(C)C(=O)c1ccc(N2CCNCC2)c(NS(=O)(=O)c2ccc(CCC)cc2)c1` [Decoy450], the Type entry was “Inactive (Decoy)”.

For the compound `Cc1cccn2c(=O)c(/C=C3\SC(=S)N(CCCCCC(=O)O)C3=O)c(NCCCn3ccnc3)nc12` [Decoy451], the Type result was “Inactive (Decoy)”.

Turning to `CC[C@@H](c1nnnn1C(C)(C)CC)N(Cc1ccc(OC)cc1)Cc1cc2c(C)ccc(C)c2[nH]c1=O` [Decoy452], the Type entry is listed as “Inactive (Decoy)”.

As to `CCN(CC)c1ccc(-n2nc3cc(C)c(NC(=S)NC(=O)c4ccc(OC)cc4OC)cc3n2)cc1` [Decoy453], the Type result is reported as “Inactive (Decoy)”.

As to `O=C(NCCCCCCNC(=O)OCCN[C@H]1CCS(=O)(=O)C1)OCCN[C@H]1CCS(=O)(=O)C1` [Decoy454], the Type entry is listed as “Inactive (Decoy)”.

For `CCOC(=O)c1[nH]c(C)c(C(=O)C2=C(O)C(=O)N(CCN(CC)CC)[C@H]2c2ccc(OC)c(OC)c2)c1C` [Decoy455], the Type result is given as “Inactive (Decoy)”.

On to `Cc1nn(Cc2ccc(Cl)cc2Cl)c(C)c1NC(=S)Nc1ccc(S(=O)(=O)Nc2ncccn2)cc1` [Decoy456], for which the Type entry is listed as “Inactive (Decoy)”.

Consider `Cc1ccc(NC(=O)CN(C)C(=O)[C@H](C)OC(=O)CNC(=O)c2ccc(Cl)c([N+](=O)[O-])c2)cc1` [Decoy457], for which the Type entry is recorded as “Inactive (Decoy)”.

Take `CC(=O)N[C@H]1[C@H](O[C@H]2[C@H](O[C@H](C)C(=O)O)[C@@H](NC(C)=O)[C@@H](OC(C)=O)O[C@@H]2COC(C)=O)O[C@H](COC(C)=O)[C@@H](OC(C)=O)[C@@H]1OC(C)=O` [Decoy458]: the Type result is recorded as “Inactive (Decoy)”.

Consider `CCOc1ccc([C@@H]2c3c(-c4cc(Cl)c(C)cc4O)n[nH]c3C(=O)N2CCCOC)cc1OCC` [Decoy460], for which the Type entry is on record as “Inactive (Decoy)”.

Take `NCCCCCC(=O)OC[C@@H]1O[C@@H](Oc2ccc(-c3coc4cc(O)cc(O)c4c3=O)cc2)[C@@H](O)[C@H](O)[C@@H]1O` [Decoy461]: the Type entry is “Inactive (Decoy)”.

For the compound `O=C(COCCN1CCN([C@@H](c2ccccc2)c2ccc(Cl)cc2)CC1)O[C@@H]1O[C@@H](CO)[C@@H](O[C@@H]2O[C@@H](CO)[C@H](O)[C@H](O)[C@H]2O)[C@H](O)[C@H]1O` [Decoy462], the Type result is “Inactive (Decoy)”.

As for `CC(=O)O[C@H]1[C@@H](O)[C@@H](O[C@@H](/C=N/c2ccc3c(c2)C(=O)NC3=O)[C@@H](CO)O[C@H](O)/C=N/c2ccc3c(c2)C(=O)NC3=O)O[C@@H](CO)[C@H]1O` [Decoy463], the Type result was “Inactive (Decoy)”.

Take `CCOC(=O)[C@@](NC(=O)c1cccc(Cl)c1)(Nc1ccc(S(=O)(=O)Nc2ccc(OC)nn2)cc1)C(F)(F)F` [Decoy464]: the Type entry is reported as “Inactive (Decoy)”.

`CCn1nc(C)c(CCN(C)c2ncc(C(=O)O)cc2NS(=O)(=O)c2ccc(C(C)=O)cc2)c1C` [Decoy465]: the Type result was “Inactive (Decoy)”.

For `CCc1nnc(NS(=O)(=O)c2ccc(NC(=O)c3ccc(S(=O)(=O)N(CCC#N)CCC#N)cc3)cc2)s1` [Decoy466], the Type result is listed as “Inactive (Decoy)”.

As to `CCCCC(=O)Nc1ccc(NC(=S)NC(=O)c2ccc(OCC)c([N+](=O)[O-])c2)cc1OC` [Decoy467], the Type entry was “Inactive (Decoy)”.

For `COC(=O)[C@@H]1[C@H](NC(=O)[C@@H]2CCOC2)c2cc(NCC(C)(C)C)cnc2N1CCc1c[nH]c2ccccc12` [Decoy468], the Type entry is “Inactive (Decoy)”.

Take `C[C@@H]1O[C@@H](O[C@H]2[C@H](O)C[C@H](O[C@H]3[C@H](O)C[C@H](O[C@H]4CC[C@@]5(C)[C@H](CC[C@@H]6[C@@H]5CC[C@]5(C)[C@@H](C7=CC(=O)OC7)CC[C@]65O)C4)O[C@@H]3C)O[C@@H]2C)C[C@@H](O)[C@@H]1O` [Decoy469]: the Type result is reported as “Inactive (Decoy)”.
